This passage reports IC50, inhibition and Km results from US20030109501A1, “High throughput assay for N-sulfotransferase activity of glucosaminyl N-deacetylase/N-sulfotransferases” (priority 2001, published 2003).

Holding throughout (format): biochemical
Assay [1] concerns the target T1, recombinant human sulfotransferase domain of NDST-2 (ST2) (Homo sapiens, UniProt P52849).
T1 construct: subcloning the N-sulfotransferase domain of NDST-2 from the vector pFASTBac-GST-NDST-2; made in house; host or cells: E. coli BL21(DE3)pLysS
T1 sequence (P52849 598-883 limits assumed): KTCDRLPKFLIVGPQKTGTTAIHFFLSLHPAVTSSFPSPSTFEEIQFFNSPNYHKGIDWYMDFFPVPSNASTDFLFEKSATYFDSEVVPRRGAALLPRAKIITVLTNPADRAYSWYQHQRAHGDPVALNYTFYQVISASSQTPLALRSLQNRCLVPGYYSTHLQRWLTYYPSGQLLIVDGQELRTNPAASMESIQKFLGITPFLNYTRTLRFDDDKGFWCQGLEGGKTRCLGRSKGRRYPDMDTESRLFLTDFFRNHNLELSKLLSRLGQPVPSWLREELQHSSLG
The assay can be described thus: Solid phase SPA assay for N-sulfotransferase activity (ST2). The following applies: ST2 2.5 μg/well, room temperature 5 h; for IC50: fully desulfated heparin pre-coated WGA-SPA beads, 35[S]-PAPS 10 nCi/well. The method, then:
(§1) The assays were conducted at room temperature in Reaction Buffer whose components were described in Example 3. The following components were added into the wells of a 96-well white plate (29444-020, Corning, N.Y.) at a final volume of 100 μl/well.
(§2) 1. 25 μl of the Reaction Buffer.
(§3) 2. 25 μl of desulfated heparin-coated beads (20 mg/ml, 500 μg/well).
(§4) 3. 25 μl of enzyme (ST2, 0.1 mg/ml, 2.5 μg/well or NDST-2, 17.6 μg/ml, 0.44 μg/well) and the plate was incubated on a shaker with slight agitation for 2 min.
(§5) 4. 25 μl of ^35[S]-PAPS (NEG-010, 0.832 mCi/ml, NEN Life Science, Boston, Mass.) (0.4 μCi/ml, 10 nCi/well).
The plate was sealed and incubated for 2-24 h. Radioactivity of the plate was then read in a Packard TopCount microplate scintillation counter (Packard Instrument, Downers Grove, Ill.). The signal-to-noise ratio is the result of counts-per-minute (CPM) in the presence of enzyme divided by counts-per-minute in the absence of enzyme.
A list of 335 compounds was obtained from a search of the Bristol-Myers Squibb inventoried database using the PHASE program and the bound conformation of PAPS taken from the NDST-1 crystal structure [Kakuta, Y. et al. (1999) J. Biol. Chem. 274, 10673-10676]. The PHASE program is an internally developed program for database searches based on ligand molecular shape and pharmacophroic elements. […] Percentage of inhibition was determined by equation; % Inhibition=(1-cpm with compound/cpm without compound)×100. […]
The plate was incubated at room temperature and 5 h. The plate was read in the TopCount scintillation counter. […] The Km of PAPS is determined as a PAPS concentration by using the Michaelis-Menten equation: y=5×10^−5x+5×10^−5.
Compound A (FIGS. 6A and C) and Compound B (FIGS. 6B and D) in DMSO were added into 96-well white plates at the indicated concentrations. […] The plates were read in the TopCount microplate scintillation counter. Percentage of inhibition was determined by the following equation: % Inhibition=(1-cpm with compound/cpm without compound)×100. IC50 was determined by the Microsoft XLfit program.

Assay [2] addresses T2, recombinant human NDST-2 (wild-type) (Homo sapiens, UniProt P52849).
T2 construct: the DNA fragment consisting of nucleotides 133-2651 of the human NDST-2 cDNA; made in house; host or cells: DG44 CHO cells (secreted, harvested from supernatant)
T2 sequence (P52849 40-883 limits assumed): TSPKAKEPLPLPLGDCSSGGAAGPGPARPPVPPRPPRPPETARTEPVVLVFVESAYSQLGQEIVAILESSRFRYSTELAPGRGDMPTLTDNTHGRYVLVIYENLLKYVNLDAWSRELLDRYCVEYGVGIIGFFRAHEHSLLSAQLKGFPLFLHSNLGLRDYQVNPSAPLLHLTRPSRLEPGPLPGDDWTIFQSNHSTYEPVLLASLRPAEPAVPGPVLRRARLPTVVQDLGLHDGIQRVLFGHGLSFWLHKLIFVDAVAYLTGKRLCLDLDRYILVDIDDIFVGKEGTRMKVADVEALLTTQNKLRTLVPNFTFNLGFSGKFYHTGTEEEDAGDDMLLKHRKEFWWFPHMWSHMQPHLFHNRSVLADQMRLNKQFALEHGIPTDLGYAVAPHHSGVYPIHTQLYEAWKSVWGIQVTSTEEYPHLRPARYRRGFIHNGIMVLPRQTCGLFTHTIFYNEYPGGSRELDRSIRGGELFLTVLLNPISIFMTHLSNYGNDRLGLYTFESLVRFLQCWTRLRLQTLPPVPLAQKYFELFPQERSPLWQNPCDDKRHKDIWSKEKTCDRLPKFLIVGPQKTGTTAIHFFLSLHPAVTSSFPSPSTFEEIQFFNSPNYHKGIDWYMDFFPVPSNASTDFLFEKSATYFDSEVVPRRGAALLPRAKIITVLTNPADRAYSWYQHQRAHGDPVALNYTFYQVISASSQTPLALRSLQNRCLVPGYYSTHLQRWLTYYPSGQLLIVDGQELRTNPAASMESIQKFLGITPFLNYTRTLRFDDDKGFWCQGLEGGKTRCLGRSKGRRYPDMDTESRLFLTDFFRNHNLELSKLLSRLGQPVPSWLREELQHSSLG
The assay can be described thus: Manual sulfotransferase assay. The following applies: final concentration of 6.25 μM; N-acetyl-de-O-sulfated heparin acceptor, 37° C. for 30 min; read-out: percent inhibition of N-sulfotransferase activity. The method, then: The manual sulfotransferase assays were conducted basically as described by Pettersson [Pettersson, I. et al. (1991) J. Biol. Chem. 266, 8044-8049; which is hereby incorporated herein by reference]. The following components were added into Eppendorf vials at a final volume of 200 μl/vial.
1. 119 μl of the Reaction Buffer whose components are described in EXAMPLE 3 herein
2. 1 μl of N-acetyl-de-O-sulfated heparin used as a sulfate acceptor (A6039, Sigma, 25 mg/ml, […]).
3. 20 μl of enzyme NDST-2 (17.6 μg/ml, […]).
4. 50 μl of test compounds (compound-treated reaction, 25 μM, 6.25 μM/vial) or 50 μl of 10% DMSO in reaction buffer (untreated reaction).
5. 10 μl of ^35[S]-PAPS used as a sulfate donor (2 μCi/ml, 100 nCi/vial).
All vials were incubated at 37° C. for 30 min. Reactions were stopped by the addition of 400 μl of 100% ethanol and 35 μl of 3 M sodium acetate into the vials. The samples were placed on dry ice for 5 min and then centrifuged at speed of 14,000 rpm for 5 min. The supernatants were discarded while the pellets were washed twice with 70% ethanol and then dissolved in 100 μl of water. […] Radioactivity was determined in a Beckman model LS 3800 scintillation counter (Beckman Coulter, Fullerton, Calif.). […]

For assay [3], the target named is T3, recombinant human wild-type NDST-2 (Homo sapiens, UniProt P52849).
T3 construct: the DNA fragment consisting of nucleotides 133-2651 of the human NDST-2 cDNA; made in house; host or cells: DG44 CHO cells (secreted, harvested from supernatant)
T3 sequence (P52849 40-883 limits assumed): T2 sequence (P52849 40-883 limits assumed)
The assay can be described thus: Solid phase SPA assay for N-sulfotransferase activity (wild-type NDST-2). The following applies: wild-type NDST-2 0.4 μg/well, fully desulfated heparin pre-coated WGA-SPA beads, 35[S]-PAPS 10 nCi/well, room temperature 5 h. The method, then: as §1, §2, §3, §4, §5
The plate was sealed and incubated for 2-24 h. Radioactivity of the plate was then read in a Packard TopCount microplate scintillation counter (Packard Instrument, Downers Grove, Ill.). […]
A list of 335 compounds was obtained from a search of the Bristol-Myers Squibb inventoried database using the PHASE program and the bound conformation of PAPS taken from the NDST-1 crystal structure [Kakuta, Y. et al. (1999) J. Biol. Chem. 274, 10673-10676]. […] Percentage of inhibition was determined by equation; % Inhibition=(1-cpm with compound/cpm without compound)×100. […]
Compound A (FIGS. 6A and C) and Compound B (FIGS. 6B and D) in DMSO were added into 96-well white plates at the indicated concentrations. […] The plates were read in the TopCount microplate scintillation counter. […]

Molecules are shown by their SMILES.

For `O=P(O)(O)CC(Cc1ccc(Cl)cc1)CP(=O)(O)O` [Compound A], the IC50 in assay [1] is roughly 0.399 µM; in assay [3] it was roughly 1.72 µM. Besides, the inhibition at 6.25 µM in assay [2] was 94.7%.

With `CC(C)c1ccc(O)c(CN(CP(=O)(O)O)CP(=O)(O)O)c1` [Compound B], the half-maximal inhibitory concentration (IC50) in assay [1] is roughly 0.52 µM; in assay [3], roughly 2.44 µM. Moreover, in assay [2], the inhibition at 6.25 µM came out at 64.8%.

Consider `Nc1ncnc2c1ncn2[C@@H]1O[C@H](COP(=O)(O)OS(=O)(=O)O)[C@@H](OP(=O)(O)O)[C@H]1O` [PAPS, adenosine 3′-phosphate 5′-phosphosulfate, reference compound], for which the Km in assay [1] (double-reciprocal plot, read-out: Km of PAPS) is roughly 1 µM.
